pIC50: −log10 of the molar value.
How the values were obtained:
Assay type in all cases: functional, cell-based
A549 = assay: Cytotoxicity against human A549 cells assessed as reduction in cell viability by CCK-8 assay
HepG2 = assay: Cytotoxicity against human HepG2 cells assessed as reduction in cell viability by CCK-8 assay
MCF7 = assay: Cytotoxicity against human MCF7 cells assessed as reduction in cell viability by CCK-8 assay
PANC-1 = assay: Cytotoxicity against human PANC-1 cells assessed as reduction in cell viability by CCK-8 assay
PC-3M = assay: Cytotoxicity against human PC-3M cells assessed as reduction in cell viability by CCK-8 assay

SMILES: C=C(C)[C@@H]1CC[C@]2(C(=O)OCCCCCCn3ccnc3C)CC[C@]3(C)[C@H](C[C@H]4OC(=O)C[C@@H](O)[C@]5(C)[C@@H]4[C@@]3(C)CC[C@H]5C(=C)C)[C@@H]12
- pIC50 (A549): 4.72
- pIC50 (HepG2): 4.89
- pIC50 (MCF7): 4.12
- pIC50 (PANC-1): 4.75
- pIC50 (PC-3M): 4.86

SMILES: C=C(C)[C@@H]1CC[C@]2(C(=O)OCCCCCBr)CC[C@]3(C)[C@H](C[C@@H](O)[C@@H]4[C@@]5(C)C(CC(=O)OC)OC(C)(C)C5CC[C@]43C)[C@@H]12 (stereo not given in full)
- pIC50 (A549): 4.39
- pIC50 (HepG2): 4.56
- pIC50 (MCF7): 4.10
- pIC50 (PANC-1): 4.26
- pIC50 (PC-3M): 4.36

SMILES: C=C(C)[C@@H]1CC[C@]2(C(=O)OCCCCCCn3cnc(C)c3)CC[C@]3(C)[C@H](C[C@@H](O)[C@@H]4[C@@]5(C)C(CC(=O)OC)OC(C)(C)C5CC[C@]43C)[C@@H]12 (stereo not given in full)
- pIC50 (A549): 4.60
- pIC50 (HepG2): 4.89
- pIC50 (MCF7): 4.48
- pIC50 (PANC-1): 4.75
- pIC50 (PC-3M): 4.74

SMILES: C=C(C)[C@@H]1CC[C@]2(C(=O)OCCCCCn3cncn3)CC[C@]3(C)[C@H](C[C@H]4OC(=O)C[C@@H](O)[C@]5(C)[C@@H]4[C@@]3(C)CC[C@H]5C(=C)C)[C@@H]12
- pIC50 (A549): 4.73
- pIC50 (HepG2): 4.42
- pIC50 (MCF7): 3.97
- pIC50 (PANC-1): 4.38
- pIC50 (PC-3M): 4.26

SMILES: C=C(C)[C@@H]1CC[C@]2(C(=O)OCCCCCCCCCCn3ccnc3C)CC[C@]3(C)[C@H](C[C@H]4OC(=O)C[C@@H](O)[C@]5(C)[C@@H]4[C@@]3(C)CC[C@H]5C(=C)C)[C@@H]12
- pIC50 (A549): 4.93
- pIC50 (HepG2): 5.52
- pIC50 (MCF7): 4.63
- pIC50 (PANC-1): 4.99
- pIC50 (PC-3M): 5.06

SMILES: C=C(C)[C@@H]1CC[C@]2(C(=O)OCCCn3ccnc3)CC[C@]3(C)[C@H](C[C@@H](O)[C@@H]4[C@@]5(C)C(CC(=O)OC)OC(C)(C)C5CC[C@]43C)[C@@H]12 (stereo not given in full)
- pIC50 (A549): 4.46
- pIC50 (HepG2): 4.56
- pIC50 (MCF7): 4.14
- pIC50 (PANC-1): 4.25
- pIC50 (PC-3M): 4.45

SMILES: C=C(C)[C@@H]1CC[C@]2(C(=O)OCCCCCCn3cc(CCN)c4ccccc43)CC[C@]3(C)[C@H](C[C@@H](O)[C@@H]4[C@@]5(C)C(CC(=O)OC)OC(C)(C)C5CC[C@]43C)[C@@H]12 (stereo not given in full)
- pIC50 (A549): 5.22
- pIC50 (HepG2): 5.72
- pIC50 (MCF7): 4.61
- pIC50 (PANC-1): 5.15
- pIC50 (PC-3M): 5.40

SMILES: C=C(C)[C@@H]1CC[C@]2(C(=O)OCCCCn3ccnc3CC)CC[C@]3(C)[C@H](C[C@H]4OC(=O)C[C@@H](O)[C@]5(C)[C@@H]4[C@@]3(C)CC[C@H]5C(=C)C)[C@@H]12
- pIC50 (A549): 4.71
- pIC50 (HepG2): 4.84
- pIC50 (MCF7): 4.04
- pIC50 (PANC-1): 4.79
- pIC50 (PC-3M): 4.92

SMILES: C=C(C)[C@@H]1CC[C@]2(C(=O)OCCCCCCCCCCn3cc(CCN)c4ccccc43)CC[C@]3(C)[C@H](C[C@@H](O)[C@@H]4[C@@]5(C)C(CC(=O)OC)OC(C)(C)C5CC[C@]43C)[C@@H]12 (stereo not given in full)
- pIC50 (A549): 5.10
- pIC50 (HepG2): 5.68
- pIC50 (MCF7): 4.59
- pIC50 (PANC-1): 5.25
- pIC50 (PC-3M): 5.24

SMILES: C=C(C)[C@@H]1CC[C@]2(C(=O)OCCCBr)CC[C@]3(C)[C@H](C[C@@H](O)[C@@H]4[C@@]5(C)C(CC(=O)OC)OC(C)(C)C5CC[C@]43C)[C@@H]12 (stereo not given in full)
- pIC50 (A549): 4.39
- pIC50 (HepG2): 4.54
- pIC50 (MCF7): 4.01
- pIC50 (PANC-1): 4.15
- pIC50 (PC-3M): 4.32

SMILES: C=C(C)[C@@H]1CC[C@]2(C(=O)OCCCCCn3ccnc3C)CC[C@]3(C)[C@H](C[C@@H](O)[C@@H]4[C@@]5(C)C(CC(=O)OC)OC(C)(C)C5CC[C@]43C)[C@@H]12 (stereo not given in full)
- pIC50 (A549): 4.46
- pIC50 (HepG2): 4.69
- pIC50 (MCF7): 4.27
- pIC50 (PANC-1): 4.37
- pIC50 (PC-3M): 4.42

SMILES: C=C(C)[C@@H]1CC[C@]2(C(=O)OCCCn3ccnc3CC)CC[C@]3(C)[C@H](C[C@H]4OC(=O)C[C@@H](O)[C@]5(C)[C@@H]4[C@@]3(C)CC[C@H]5C(=C)C)[C@@H]12
- pIC50 (A549): 4.67
- pIC50 (HepG2): 4.78
- pIC50 (MCF7): 4.33
- pIC50 (PANC-1): 4.57
- pIC50 (PC-3M): 4.91

SMILES: C=C(C)[C@@H]1CC[C@]2(C(=O)OCCCCCCn3ccnc3)CC[C@]3(C)[C@H](C[C@H]4OC(=O)C[C@@H](O)[C@]5(C)[C@@H]4[C@@]3(C)CC[C@H]5C(=C)C)[C@@H]12
- pIC50 (A549): 4.62
- pIC50 (HepG2): 4.84
- pIC50 (MCF7): 4.33
- pIC50 (PANC-1): 4.34
- pIC50 (PC-3M): 4.63

SMILES: C=C(C)[C@@H]1CC[C@]2(C(=O)OCCCn3ccnc3CC)CC[C@]3(C)[C@H](C[C@@H](O)[C@@H]4[C@@]5(C)C(CC(=O)OC)OC(C)(C)C5CC[C@]43C)[C@@H]12 (stereo not given in full)
- pIC50 (A549): 4.56
- pIC50 (HepG2): 4.72
- pIC50 (MCF7): 4.18
- pIC50 (PANC-1): 4.32
- pIC50 (PC-3M): 4.60

SMILES: C=C(C)[C@@H]1CC[C@]2(C(=O)OCCCCCn3cc(CCN)c4ccccc43)CC[C@]3(C)[C@H](C[C@@H](O)[C@@H]4[C@@]5(C)C(CC(=O)OC)OC(C)(C)C5CC[C@]43C)[C@@H]12 (stereo not given in full)
- pIC50 (A549): 5.18
- pIC50 (HepG2): 5.77
- pIC50 (MCF7): 4.74
- pIC50 (PANC-1): 5.24
- pIC50 (PC-3M): 5.41
